Laboratory results reported in ChEMBL document CHEMBL3120082, “Synthesis and in vitro anti-proliferative effects of 3-(hetero)aryl substituted 3-[(prop-2-ynyloxy)(thiophen-2-yl)methyl]pyridine derivatives on various cancer cell lines” (Bioorg Med Chem Lett, 2014).
Activity calls are given as the source filed them. The rule behind the calls is not given here.

Legend:
[1] = test system: K562; experiment: Cytotoxicity against human K562 cells assessed as cell viability at 10 uM after 24 hrs by MTT assay; assay type: functional; conditions: for inhibition of growth at 10 µM: K562, 24 h, read-out: GI
[2] = test system: MDA-MB-231; experiment: Cytotoxicity against estrogen receptor-negative human MDA-MB-231 cells assessed as cell viability at 10 uM after 24 hrs by MTT assay; assay type: functional; conditions: for inhibition of growth at 10 µM: MDA-MB-231, 24 h, read-out: GI
[3] = test system: COLO 205; experiment: Cytotoxicity against human COLO205 cells assessed as cell viability at 10 uM after 24 hrs by MTT assay; assay type: functional; conditions: for inhibition of growth at 10 µM: COLO 205, 24 h, read-out: GI
[4] = (§1) Cytotoxicity against human IMR32 cells assessed as cell viability at 10 uM after 24 hrs by MTT assay; assay type: functional; conditions: IMR-32, 24 h, read-out: GI
[5] = Cytotoxicity against human HEK293 cells assessed as cell viability at 10 uM after 24 hrs by MTT assay; assay type: cell-based; conditions: read-out: GI
[6] = test system: MCF7; experiment: Cytotoxicity against estrogen receptor-positive human MCF7 cells assessed as cell viability at 10 uM after 24 hrs by MTT assay; assay type: functional; conditions: for inhibition of growth at 10 µM: MCF7, 24 h, read-out: GI
[7] = test system: HepG2; experiment: Cytotoxicity against human HepG2 cells assessed as cell viability at 10 uM after 24 hrs by MTT assay; assay type: functional; conditions: for inhibition of growth at 10 µM: HepG2, 24 h, read-out: GI
[8] = test system: MCF7; experiment: Cytotoxicity against estrogen receptor-positive human MCF7 cells after 24 hrs by MTT assay; assay type: functional, cell-based; conditions: MCF7, 24 h
[9] = test system: MDA-MB-231; experiment: Cytotoxicity against estrogen receptor-negative human MDA-MB-231 cells after 24 hrs by MTT assay; assay type: functional, cell-based; conditions: MDA-MB-231, 24 h
[10] = test system: IMR-32; experiment: as §1; assay type: functional

In the case of `CCOC(=O)c1c(C#CCOC(c2cccs2)c2cccnc2Cl)sc2c1CCCC2` (stereo not given), the inhibition of growth at 10 µM [1] is reported as 53%, the inhibition of growth at 10 µM [2] is reported as 46.4% and the inhibition of growth at 10 µM [3] is reported as 32.1%. It also gave an inhibition of growth at 10 µM [4] of 22.5%, an inhibition at 24 h, 10 µM [5] of -0.9% and an inhibition of growth at 10 µM [6] of 31.8%. It also gave an inhibition of growth at 10 µM [7] of 29.5%.
Compound `CCOC(=O)c1c[nH]nc1C#CCOC(c1cccs1)c1cccnc1Cl` (stereo not given) has an inhibition of growth at 10 µM [1] of 54.8%, an inhibition of growth at 10 µM [2] of 35.3% and an inhibition of growth at 10 µM [3] of 45.8%. It also gave an inhibition of growth at 10 µM [4] of 30.9%, an inhibition at 24 h, 10 µM [5] of 0.4% and an inhibition of growth at 10 µM [6] of 33.8%. It also gave an inhibition of growth at 10 µM [7] of 34.3%.
With `O=C(O)c1ccc(C#CCOC(c2cccs2)c2cccnc2Cl)cc1` (stereo not given) the inhibition of growth at 10 µM [1] was 57.7%, the inhibition of growth at 10 µM [2] was 38.9% and the inhibition of growth at 10 µM [3] was 44%. The inhibition of growth at 10 µM [4] was 39.6%, the inhibition at 24 h, 10 µM [5] was 4.8% and the inhibition of growth at 10 µM [6] was 35.9%. The inhibition of growth at 10 µM [7] was 38.2%.
With `COc1cccc2c1C(=O)c1c(O)c3c(c(O)c1C2=O)C[C@@](O)(C(=O)CO)C[C@@H]3O[C@H]1C[C@H](N)[C@H](O)[C@H](C)O1` [DOXORUBICIN] the IC50 [8] was 440 nM and the IC50 [9] was 650 nM.
Compound `Nc1ccccc1C#CCOC(c1cccs1)c1cccnc1Cl` (stereo not given) has an inhibition of growth at 10 µM [1] of 43.8%, an inhibition of growth at 10 µM [2] of 73.3% and an inhibition of growth at 10 µM [3] of 37.8%. For the same compound, the inhibition of growth at 10 µM [4] was 47.6%, the inhibition at 24 h, 10 µM [5] was 3.2% and the IC50 [8] was 1290 nM. The IC50 ([9]; read-out: IC50) was 950 nM, the inhibition of growth at 10 µM [6] was 69.3% and the inhibition of growth at 10 µM [7] was 36.2%.
With `Oc1ccccc1C#CCOC(c1cccs1)c1cccnc1Cl` (stereo not given) the inhibition of growth at 10 µM [1] was 40.6%, the inhibition of growth at 10 µM [2] was 70.8% and the inhibition of growth at 10 µM [3] was 28.5%. The inhibition of growth at 10 µM [4] was 34.4%, the inhibition at 24 h, 10 µM [5] was 6% and the IC50 [8] was 1510 nM. The IC50 ([9]; read-out: IC50) was 1100 nM, the inhibition of growth at 10 µM [6] was 67.7% and the inhibition of growth at 10 µM [7] was 13.6%.
For `O=C(O)COC(c1cccs1)c1cccnc1Cl` (stereo not given), the “growth inhibition (GI)” value [1] was “inactive”, the “growth inhibition (GI)” value [2] was “inactive” and the “growth inhibition (GI)” value [3] was “inactive”. For the same compound, the “growth inhibition (GI)” value [10] was “inactive”, the “growth inhibition (GI)” value [6] was “inactive” and the “growth inhibition (GI)” value [7] was “inactive”.
For `OC(c1cccs1)c1cccnc1Cl` (stereo not given), the “growth inhibition (GI)” value [1] was “inactive”, the “growth inhibition (GI)” value [2] was “inactive” and the “growth inhibition (GI)” value [3] was “inactive”. For the same compound, the “growth inhibition (GI)” value [10] was “inactive”, the “growth inhibition (GI)” value [6] was “inactive” and the “growth inhibition (GI)” value [7] was “inactive”.
For `CCOC(=O)c1sc2c(c1C#CCOC(c1cccs1)c1cccnc1Cl)CCC2` (stereo not given), the inhibition of growth at 10 µM [1] was 65.1%, the inhibition of growth at 10 µM [2] was 37.9% and the inhibition of growth at 10 µM [3] was 46%. For the same compound, the inhibition of growth at 10 µM [4] was 25.2%, the inhibition at 24 h, 10 µM [5] was -1.6% and the inhibition of growth at 10 µM [6] was 25%. It also gave an inhibition of growth at 10 µM [7] of 21.9%.
`O=C1Nc2ccc(C#CCOC(c3cccs3)c3cccnc3Cl)cc2C1=O` (stereo not given) showed an inhibition of growth at 10 µM [1] of 61.1%, an inhibition of growth at 10 µM [2] of 72.3% and an inhibition of growth at 10 µM [3] of 49.3%. The inhibition of growth at 10 µM [4] was 58.4%, the inhibition at 24 h, 10 µM [5] was 0.8% and the IC50 [8] was 1050 nM. For the same compound, the IC50 ([9]; read-out: IC50) was 990 nM, the inhibition of growth at 10 µM [6] was 71.9% and the inhibition of growth at 10 µM [7] was 44.8%.
In the case of `O=C(O)c1ccccc1C#CCOC(c1cccs1)c1cccnc1Cl` (stereo not given), the inhibition of growth at 10 µM [1] is reported as 40.2%, the inhibition of growth at 10 µM [2] is reported as 47.9% and the inhibition of growth at 10 µM [3] is reported as 34.7%. For the same compound, the inhibition of growth at 10 µM [4] was 38.1%, the inhibition at 24 h, 10 µM [5] was 2.7% and the inhibition of growth at 10 µM [6] was 35.9%. It also gave an inhibition of growth at 10 µM [7] of 33.1%.
`COc1ccc(C#CCOC(c2cccs2)c2cccnc2Cl)cc1` (stereo not given) gave an inhibition of growth at 10 µM [1] of 33.8%, an inhibition of growth at 10 µM [2] of 70.1% and an inhibition of growth at 10 µM [3] of 31.6%. For the same compound, the inhibition of growth at 10 µM [4] was 20.7%, the inhibition at 24 h, 10 µM [5] was -1.1% and the IC50 [8] was 1720 nM. The IC50 ([9]; read-out: IC50) was 1160 nM, the inhibition of growth at 10 µM [6] was 64.7% and the inhibition of growth at 10 µM [7] was 13.9%.
In the case of `Clc1ncccc1C(OCC#Cc1ccc(I)cc1)c1cccs1` (stereo not given), the inhibition of growth at 10 µM [1] is reported as 48%, the inhibition of growth at 10 µM [2] is reported as 52.2% and the inhibition of growth at 10 µM [3] is reported as 39%. It also gave an inhibition of growth at 10 µM [4] of 60%, an inhibition at 24 h, 10 µM [5] of 0% and an inhibition of growth at 10 µM [6] of 45.6%. For the same compound, the inhibition of growth at 10 µM [7] was 54.2%.
Work on `O=[N+]([O-])c1ccccc1C#CCOC(c1cccs1)c1cccnc1Cl` (stereo not given) yielded an inhibition of growth at 10 µM [1] of 18.9%, an inhibition of growth at 10 µM [2] of 48% and an inhibition of growth at 10 µM [3] of 16.5%. For the same compound, the inhibition of growth at 10 µM [4] was 53.2%, the inhibition at 24 h, 10 µM [5] was 0.1% and the inhibition of growth at 10 µM [6] was 34.8%. It also gave an inhibition of growth at 10 µM [7] of 46.2%.
With `CCOC(=O)COC(c1cccs1)c1cccnc1Cl` (stereo not given) the “growth inhibition (GI)” value [1] was “inactive”, the “growth inhibition (GI)” value [2] was “inactive” and the “growth inhibition (GI)” value [3] was “inactive”. The “growth inhibition (GI)” value [10] was “inactive”, the “growth inhibition (GI)” value [6] was “inactive” and the “growth inhibition (GI)” value [7] was “inactive”.
